Read-outs that look alike come from different tables or passages of the source.
Legend:
Assay in all cases: biochemical
ZmDRIK1-K217-P492 = target: T1, ZmDRIK1-K217-P492 (Zea mays, UniProt C0P4K9)
T1 construct: kinase domain, K217-P492
T1 sequence (C0P4K9 1-514): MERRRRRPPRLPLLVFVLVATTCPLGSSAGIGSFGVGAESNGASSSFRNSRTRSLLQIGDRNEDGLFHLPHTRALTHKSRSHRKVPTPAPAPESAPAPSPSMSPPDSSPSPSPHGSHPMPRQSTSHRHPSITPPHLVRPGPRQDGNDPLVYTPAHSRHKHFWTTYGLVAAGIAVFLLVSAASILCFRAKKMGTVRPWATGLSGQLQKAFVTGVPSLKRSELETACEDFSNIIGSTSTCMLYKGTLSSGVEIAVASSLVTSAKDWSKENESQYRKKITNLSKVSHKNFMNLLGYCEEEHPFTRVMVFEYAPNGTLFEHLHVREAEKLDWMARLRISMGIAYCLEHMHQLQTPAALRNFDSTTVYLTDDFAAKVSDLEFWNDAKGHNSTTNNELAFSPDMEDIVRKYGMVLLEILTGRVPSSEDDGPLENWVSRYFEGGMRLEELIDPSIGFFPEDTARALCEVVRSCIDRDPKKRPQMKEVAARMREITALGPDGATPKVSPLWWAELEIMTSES

ZmDRIK1-R187-P492 = target: T2, ZmDRIK1-R187-P492 (Zea mays, UniProt C0P4K9)
T2 construct: kinase domain, R187-P492
T2 sequence (C0P4K9 1-514): T1 sequence (C0P4K9 1-514)

[1] = target: T3, ZmDRIK1 (DROUGHT RESPONSIVE INACTIVE KINASE 1), kinase domain (Zea mays, UniProt C0P4K9)
T3 construct: gene ZEAMMB73_Zm00001d028770; ZmDRIK1-KD R187-S514 (kinase domain)
T3 sequence (C0P4K9 187-514): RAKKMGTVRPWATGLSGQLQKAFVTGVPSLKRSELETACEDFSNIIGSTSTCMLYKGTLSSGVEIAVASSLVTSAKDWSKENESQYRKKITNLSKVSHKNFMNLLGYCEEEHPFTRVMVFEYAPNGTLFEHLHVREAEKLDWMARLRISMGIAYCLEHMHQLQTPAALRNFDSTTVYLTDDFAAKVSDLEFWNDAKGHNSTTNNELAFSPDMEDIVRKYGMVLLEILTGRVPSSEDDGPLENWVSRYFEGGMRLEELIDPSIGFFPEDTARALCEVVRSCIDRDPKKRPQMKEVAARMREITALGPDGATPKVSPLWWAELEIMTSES

ZmDRIK1-K217-S514 = target: T4, ZmDRIK1-K217-S514 (Zea mays, UniProt C0P4K9)
T4 construct: kinase domain, K217-S514
T4 sequence (C0P4K9 1-514): T1 sequence (C0P4K9 1-514)

[2] = read-out: dTm B, sheet ZmDRIK1-K217-P492;, DSF, Boltzmann fit, 0.1% DMSO
[3] = read-out: dTm B, DSF, Boltzmann fit, 0.1% DMSO
[4] = read-out: dTm B, sheet ZmDRIK1-R187-S514;, DSF, Boltzmann fit, 0.1% DMSO
[5] = read-out: dTm B, sheet ZmDRIK1-K217-S514;, DSF, Boltzmann fit, 0.1% DMSO

| Structure (SMILES) | ΔTm at 10 µM (ZmDRIK1-K217-P492; [2]) | ΔTm at 10 µM (ZmDRIK1-R187-P492; [3]) | ΔTm at 10 µM [1, 4] | ΔTm at 10 µM (ZmDRIK1-K217-S514; [5]) | ΔTm at 10 µM (ZmDRIK1-K217-P492; read-out: dTm B) | ΔTm at 10 µM (ZmDRIK1-R187-P492; read-out: dTm B) | ΔTm at 10 µM ([1]; read-out: dTm B) | ΔTm at 10 µM (ZmDRIK1-K217-S514; read-out: dTm B) |
| --- | --- | --- | --- | --- | --- | --- | --- | --- |
| C=CC(=O)Nc1cccc(Oc2nc(Nc3ccc(N4CCN(C)CC4)cc3OC)ncc2Cl)c1 [WZ4002] | -1.2 °C | -0.434 °C | -1.27 °C | -0.557 °C |  |  |  |  |
| Cc1ccccc1CN1C(=O)C2=C(CCN(Cc3ccccc3)C2)N2CCN=C12 [TIC10] |  |  |  |  | 0.685 °C | -0.155 °C | -0.768 °C | -0.395 °C |
| Cc1csc(-c2nnc(Nc3ccc(Oc4ncccc4-c4ccnc(N)n4)cc3)c3ccccc23)c1 [AMG-900] | -3.86 °C | -0.572 °C | -6.12 °C | -2.33 °C |  |  |  |  |
| CS(=O)(=O)N1CCN(Cc2cc3nc(-c4cccc5[nH]ncc45)nc(N4CCOCC4)c3s2)CC1 [GDC-0941] | -0.665 °C | -0.181 °C | -0.702 °C | -0.203 °C |  |  |  |  |
| NC(=O)c1cccc(-c2cc(Nc3ccc(OC(F)(F)F)cc3)ncn2)c1 [GNF-2] | -9.47 °C | -7.74 °C | -0.138 °C | -4.34 °C |  |  |  |  |
| CCOc1cc2ncc(C#N)c(Nc3ccc(F)c(Cl)c3)c2cc1NC(=O)/C=C/CN(C)C [Pelitinib (EKB-569)] | -0.854 °C | -0.494 °C | -0.77 °C | -0.496 °C |  |  |  |  |
| Clc1ccc(Nc2nnc(Cc3ccncc3)c3ccccc23)cc1 [Vatalanib (PTK787) 2HCl] | -1.11 °C | -0.124 °C | -0.775 °C | -0.391 °C |  |  |  |  |
| Cn1cc(-c2ccc3nnc(C(F)(F)c4ccc5ncccc5c4)n3n2)cn1 [JNJ-38877605] | -1 °C | -0.343 °C | -0.758 °C | -0.499 °C |  |  |  |  |
| O=C(NCCO)c1cccc(-c2cc(Nc3ccc(OC(F)(F)F)cc3)ncn2)c1 [GNF-5] | -0.507 °C | 1.16 °C | -0.0553 °C | 0.543 °C |  |  |  |  |
| C#Cc1cccc(Nc2ncnc3cc(OC)c(OCCCCCCC(=O)NO)cc23)c1 [CUDC-101] | -1.03 °C | -0.186 °C | -0.684 °C | -0.263 °C |  |  |  |  |
| N[C@@H]1CCCN(c2c(/C=C3\SC(=O)NC3=O)cccc2-c2ccccc2)C1 [AZD1208] | -0.752 °C | -0.181 °C | -0.564 °C | -0.249 °C |  |  |  |  |
| CO[C@H]1C[C@@H]2CC[C@@H](C)[C@@](O)(O2)C(=O)C(=O)N2CCCC[C@H]2C(=O)O[C@H]([C@H](C)C[C@@H]2CC[C@@H](OP(C)(C)=O)[C@H](OC)C2)CC(=O)[C@H](C)/C=C(\C)[C@@H](O)[C@@H](OC)C(=O)[C@H](C)C[C@H](C)/C=C/C=C/C=C/1C [Ridaforolimus (Deforolimus)] | -1.84 °C | -0.365 °C | -0.675 °C | -0.213 °C |  |  |  |  |
| COC(=O)c1ccc2c(c1)NC(=O)/C2=C(\Nc1ccc(N(C)C(=O)CN2CCN(C)CC2)cc1)c1ccccc1 [Nintedanib (BIBF 1120)] | -1.32 °C | -0.154 °C | -0.677 °C | -0.223 °C |  |  |  |  |
| NCC(=O)Nc1ccc(-n2nc(C(F)(F)F)cc2-c2ccc3c(ccc4ccccc43)c2)cc1 [OSU-03012 (AR-12)] | -8.69 °C | -1.36 °C | -0.382 °C | 0.388 °C |  |  |  |  |
| CN1CCN(c2ccc(OC(F)(F)F)c(Nc3ncc4c(n3)-c3c(c(C(N)=O)nn3CCO)CC4)c2)CC1 [NMS-P937 (NMS1286937)] | -1.1 °C | -0.749 °C | -1.15 °C | -0.517 °C |  |  |  |  |
| Cc1nc(NC(=O)N2CCC[C@H]2C(N)=O)sc1-c1csc(C(C)(C)C)n1 [A66] | -0.988 °C | -0.295 °C | -0.746 °C | -0.323 °C |  |  |  |  |
| Cn1cc(-c2[nH]c3cc(NC(=O)[C@H](N)C4CCCCC4)cc4c3c2C=NNC4=O)cn1 [PF-477736] | -1.09 °C | -0.228 °C | -0.63 °C | -0.328 °C |  |  |  |  |
| COc1ccc2c(Oc3ccc(NC(=O)c4c(C)n(CC(C)(C)O)n(-c5ccccc5)c4=O)nc3)ccnc2c1 [AMG-458] | -0.94 °C | -0.312 °C | -0.675 °C | -0.329 °C |  |  |  |  |
| O=C1NC(=O)/C(=C/c2cccc(C(F)(F)F)c2)S1 [SMI-4a] | -1.12 °C | 0.139 °C | -0.708 °C | -0.218 °C |  |  |  |  |

| Structure (SMILES) | ΔTm at 10 µM (ZmDRIK1-K217-P492; [2]) | ΔTm at 10 µM (ZmDRIK1-R187-P492; [3]) | ΔTm at 10 µM [1, 4] | ΔTm at 10 µM (ZmDRIK1-K217-S514; [5]) | ΔTm at 10 µM (ZmDRIK1-K217-P492; read-out: dTm B) | ΔTm at 10 µM (ZmDRIK1-R187-P492; read-out: dTm B) | ΔTm at 10 µM ([1]; read-out: dTm B) | ΔTm at 10 µM (ZmDRIK1-K217-S514; read-out: dTm B) |
| --- | --- | --- | --- | --- | --- | --- | --- | --- |
| COc1cc2ncc(-c3ccccc3)nc2cc1OC [Tyrphostin AG 1296] | -0.341 °C | -0.166 °C | -0.879 °C | -0.375 °C |  |  |  |  |
| CNc1nc(Nc2cnn([C@H]3CCN(C4COC4)C[C@@H]3F)c2Cl)ncc1C(F)(F)F [GNE-9605] | -0.685 °C | -0.334 °C | -0.953 °C | -0.718 °C |  |  |  |  |
| Oc1cccc(-c2nc(N3CCOCC3)c3oc4ncccc4c3n2)c1 [PI-103] | -1.14 °C | -0.366 °C | -0.608 °C | -0.559 °C |  |  |  |  |
| COc1cc2c(Nc3ccc(NC(=O)c4ccccc4)cc3)ncnc2cc1OCCCN1CCOCC1 [ZM 447439] | -0.314 °C | 0.124 °C | -0.965 °C | 0.111 °C |  |  |  |  |
| Cc1ccc2nc(NCCN)c3ncc(C)n3c2c1 [BMS-345541] | -0.0998 °C | -0.153 °C | -0.926 °C | -0.486 °C |  |  |  |  |
| COc1ccc(N(C(=O)Oc2c(C)cccc2C)c2ccnc(Nc3ccc(N4CCN(C)CC4)cc3)n2)c(OC)c1 [WH-4-023] |  |  |  |  | -0.826 °C | -0.703 °C | -0.841 °C | -0.646 °C |
| N#C/C(=C(/N)Sc1ccc(N)cc1)c1ccccc1C(F)(F)F [SL-327] | -0.701 °C | -0.157 °C | -1.09 °C | -0.356 °C |  |  |  |  |
| CCn1c(N)c(C(=O)NC)c(=O)c2ccc(C#C[C@@](C)(O)COC)nc21 [SAR131675] | -0.827 °C | -0.181 °C | -0.688 °C | -0.272 °C |  |  |  |  |
| CC(C)(C)c1cc(NC(=O)Nc2ccc(-c3cn4c(n3)sc3cc(OCCN5CCOCC5)ccc34)cc2)no1 [Quizartinib (AC220)] | -4.77 °C | -3.69 °C | -11.5 °C | -1.21 °C |  |  |  |  |
| CNC(=O)c1cc(COc2nnc(Nc3ccc(Cl)cc3)c3ccoc23)ccn1 [Telatinib] | -0.739 °C | -0.226 °C | -0.862 °C | -0.252 °C |  |  |  |  |
| CC(C)(C)c1cnc(CSc2cnc(NC(=O)C3CCNCC3)s2)o1 [SNS-032 (BMS-387032)] | -0.977 °C | -0.103 °C | -1.09 °C | -0.203 °C |  |  |  |  |
| Cn1cc(-c2ccc3ncc(Cc4ccc5ncccc5c4)n3n2)cn1 [NVP-BVU972] | -0.593 °C | -0.283 °C | -0.84 °C | -0.37 °C |  |  |  |  |
| O=C(c1ccc(Nc2nccc(-c3cc4ccccc4s3)n2)cc1)N1CCC(N2CCCC2)CC1 [IKK-16 (IKK Inhibitor VII)] | -0.786 °C | 0.0892 °C | -0.0967 °C | 0.121 °C |  |  |  |  |
| Cc1nc(Nc2ncc(C(=O)Nc3c(C)cccc3Cl)s2)cc(N2CCN(CCO)CC2)n1 [Dasatinib] | -1.24 °C | -0.493 °C | -0.74 °C | -0.388 °C |  |  |  |  |
| CS(=O)(=O)N1CCc2c(-c3cnc(N)nc3)nc(N3CCOCC3)nc21 [CH5132799] | -0.608 °C | -0.223 °C | -0.711 °C | -0.324 °C |  |  |  |  |
| CNc1nc(-c2ccc3c(N)n[nH]c3c2)cc(N2C[C@@H](C(=O)NC3CCCCC3)CC[C@H]2C)n1 [GSK2334470] | -0.636 °C | -0.4 °C | -0.8 °C | -0.431 °C |  |  |  |  |
| CC(=O)Nc1nc(C)c(-c2ccc(Cl)c(S(=O)(=O)NCCO)c2)s1 [PIK-93] | -0.556 °C | -0.0815 °C | -1.08 °C | -0.175 °C |  |  |  |  |
| COc1ncc(-c2ccc3nccc(-c4ccnnc4)c3c2)cc1NS(=O)(=O)c1ccc(F)cc1F [GSK2126458 (GSK458)] | -1.03 °C | -0.322 °C | -0.808 °C | -0.505 °C |  |  |  |  |

— article PMC7158045 (BMC Plant Biology, 2020)
